{"source": "patent US8802597B2", "about": "“Herbicidal pyrimidines” (E I du Pont de Nemours and Company, priority 2003, dated 2014)", "assay_type_in_all_cases": "in vivo", "key": {"[1]": {"test_system": "chickweed (Stellaria media)", "experiment": "Test C postemergence", "conditions": "for Chickweed plant response rating: 62 g ai/ha, scale 0 to 100 (0 no effect, 100 complete control); for Plant response rating, Chickweed: scale 0 to 100", "from_the_text": "(§1) Seeds or nutlets of plant species selected from bermudagrass (Cynodon dactylon), Surinam grass (Brachiaria decumbens), cocklebur (Xanthium strumarium), corn (Zea mays), crabgrass (Digitaria sanguinalis), woolly cupgrass (Eriochloa villosa), giant foxtail (Setaria faberii), goosegrass (Eleusine indica), johnsongrass (Sorghum halepense), kochia (Kochia scoparia), lambsquarters (Chenopodium album), morningglory (Ipomoea coccinea), eastern black nightshade (Solanum ptycanthum), yellow nutsedge (Cyperus esculentus), pigweed (Amaranthus retroflexus), common ragweed (Ambrosia elatior), soybean (Glycine max), common (oilseed) sunflower (Helianthus annuus), and velvetleaf (Abutilon theophrasti) were planted and treated preemergence with test chemicals formulated in a non-phytotoxic solvent mixture which included a surfactant.\n(§2) At the same time, plants selected from these crop and weed species and also winter barley (Hordeum vulgare), blackgrass (Alopecurus myosuroides), canarygrass (Phalaris minor), chickweed (Stellaria media), downy brome (Bromus tectorum), green foxtail (Setaria viridis), Italian ryegrass (Lolium multiflorum), wheat (Triticum aestivum), wild oat (Avena fatua) and windgrass (Apera spica-venti) were treated with postemergence applications of some of the test chemicals formulated in the same manner. Plants ranged in height from 2 to 18 cm (1- to 4-leaf stage) for postemergence treatments. Plant species in the flooded paddy test consisted of rice (Oryza sativa), umbrella sedge (Cyperus difformis), duck salad (Heteranthera limosa) and barnyardgrass (Echinochloa crus-galli) grown to the 2-leaf stage for testing. Treated plants and controls were maintained in a greenhouse for 12 to 14 days, after which time all species were compared to controls and visually evaluated. Plant response ratings, summarized in Table C, are based on a scale of 0 to 100 where 0 is no effect and 100 is complete control. A dash (-) response means no test result."}, "[2]": {"test_system": "Surinam grass (Brachiaria decumbens)", "experiment": "Test C pre/postemergence", "conditions": "for Surinam Grass plant response rating: scale 0 to 100 (0 no effect, 100 complete control)", "from_the_text": "as §1, §2"}, "[3]": {"test_system": "yellow nutsedge (Cyperus esculentus)", "experiment": "Test C pre/postemergence", "conditions": "for Nutsedge, Yellow plant response rating: scale 0 to 100 (0 no effect, 100 complete control)", "from_the_text": "as §1, §2"}, "[4]": {"test_system": "giant foxtail (Setaria faberii)", "experiment": "Test C pre/postemergence", "conditions": "for Foxtail, Giant plant response rating: scale 0 to 100 (0 no effect, 100 complete control)", "from_the_text": "as §1, §2"}, "[5]": {"test_system": "crabgrass (Digitaria sanguinalis)", "experiment": "Test C pre/postemergence", "conditions": "for Crabgrass plant response rating: scale 0 to 100 (0 no effect, 100 complete control)", "from_the_text": "as §1, §2"}, "[6]": {"conditions": "Postemergence, 250 g ai/ha, scale 0 to 100"}, "[7]": {"conditions": "Postemergence, 500 g ai/ha, scale 0 to 100"}, "[8]": {"conditions": "Preemergence, 125 g ai/ha, scale 0 to 100"}, "[9]": {"conditions": "Preemergence, 250 g ai/ha, scale 0 to 100"}, "[10]": {"conditions": "Preemergence, 500 g ai/ha, scale 0 to 100"}, "[11]": {"conditions": "Preemergence, 62 g ai/ha, scale 0 to 100, 0 no effect, 100 complete control"}, "[12]": {"conditions": "Preemergence, 16 g ai/ha, scale 0 to 100, 0 no effect, 100 complete control"}, "[13]": {"conditions": "Preemergence, 31 g ai/ha, scale 0 to 100, 0 no effect, 100 complete control"}}}
{"compound": "COC(=O)CNc1nc(C2CC2)nc(C(=O)OC)c1Br", "note": "[Compound 10]", "values": [{"measurement": "Chickweed plant response rating", "setting": "[1]", "result": 0}, {"measurement": "Plant response rating, Chickweed", "setting": "[1]; 125 g ai/ha", "result": 0}, {"measurement": "Plant response rating, Chickweed", "setting": "[1]; 250 g ai/ha", "result": 20}, {"measurement": "Plant response rating, Chickweed", "setting": "[1]; 500 g ai/ha", "result": 70}, {"measurement": "Surinam Grass plant response rating", "setting": "[2]; Postemergence, 62 g ai/ha", "result": 0}, {"measurement": "Surinam Grass plant response rating", "setting": "[2]; Postemergence, 125 g ai/ha", "result": 0}, {"measurement": "Plant response rating, Surinam Grass", "setting": "[2]; [6]", "result": 0}, {"measurement": "Plant response rating, Surinam Grass", "setting": "[2]; [7]", "result": 0}, {"measurement": "Plant response rating, Surinam Grass", "setting": "[2]; [8]", "result": 0}, {"measurement": "Plant response rating, Surinam Grass", "setting": "[2]; [9]", "result": 0}, {"measurement": "Plant response rating, Surinam Grass", "setting": "[2]; [10]", "result": 0}, {"measurement": "Nutsedge, Yellow plant response rating", "setting": "[3]; Postemergence, 62 g ai/ha", "result": 0}, {"measurement": "Nutsedge, Yellow plant response rating", "setting": "[3]; Postemergence, 125 g ai/ha", "result": 0}, {"measurement": "Plant response rating, Nutsedge, Yellow", "setting": "[3]; [6]", "result": 0}, {"measurement": "Plant response rating, Nutsedge, Yellow", "setting": "[3]; [7]", "result": 0}, {"measurement": "Plant response rating, Nutsedge, Yellow", "setting": "[3]; [11]", "result": 0}, {"measurement": "Plant response rating, Nutsedge, Yellow", "setting": "[3]; [8]", "result": 0}, {"measurement": "Foxtail, Giant plant response rating", "setting": "[4]; Postemergence, 62 g ai/ha", "result": 0}, {"measurement": "Foxtail, Giant plant response rating", "setting": "[4]; Postemergence, 125 g ai/ha", "result": 0}, {"measurement": "Plant response rating, Foxtail, Giant", "setting": "[4]; [6]", "result": 0}, {"measurement": "Plant response rating, Foxtail, Giant", "setting": "[4]; [7]", "result": 0}, {"measurement": "Plant response rating, Foxtail, Giant", "setting": "[4]; [11]", "result": 0}, {"measurement": "Plant response rating, Foxtail, Giant", "setting": "[4]; [8]", "result": 0}, {"measurement": "Plant response rating, Foxtail, Giant", "setting": "[4]; [9]", "result": 0}, {"measurement": "Plant response rating, Foxtail, Giant", "setting": "[4]; [10]", "result": 0}, {"measurement": "Crabgrass plant response rating", "setting": "[5]; Postemergence, 62 g ai/ha", "result": 0}, {"measurement": "Crabgrass plant response rating", "setting": "[5]; Postemergence, 125 g ai/ha", "result": 0}, {"measurement": "Plant response rating, Crabgrass", "setting": "[5]; [6]", "result": 0}, {"measurement": "Plant response rating, Crabgrass", "setting": "[5]; [7]", "result": 0}, {"measurement": "Plant response rating, Crabgrass", "setting": "[5]; [11]", "result": 0}, {"measurement": "Plant response rating, Crabgrass", "setting": "[5]; [8]", "result": 0}, {"measurement": "Plant response rating, Crabgrass", "setting": "[5]; [9]", "result": 0}, {"measurement": "Plant response rating, Crabgrass", "setting": "[5]; [10]", "result": 0}]}
{"compound": "COCc1nc(C2CC2)nc(N)c1Br", "note": "[Compound 11]", "values": [{"measurement": "Plant response rating (scale of 0 to 100), Chickweed", "setting": "[1]; 16 g ai/ha", "result": 0}, {"measurement": "Plant response rating (scale of 0 to 100), Chickweed", "setting": "[1]; 31 g ai/ha", "result": 0}, {"measurement": "Chickweed plant response rating", "setting": "[1]", "result": 0}, {"measurement": "Plant response rating, Chickweed", "setting": "[1]; 125 g ai/ha", "result": 0}, {"measurement": "Plant response rating (scale of 0 to 100), Surinam Grass", "setting": "[2]; Postemergence, 16 g ai/ha", "result": 0}, {"measurement": "Plant response rating (scale of 0 to 100), Surinam Grass", "setting": "[2]; Postemergence, 31 g ai/ha", "result": 0}, {"measurement": "Surinam Grass plant response rating", "setting": "[2]; Postemergence, 62 g ai/ha", "result": 0}, {"measurement": "Surinam Grass plant response rating", "setting": "[2]; Postemergence, 125 g ai/ha", "result": 0}, {"measurement": "Plant response rating, Surinam Grass", "setting": "[2]; [12]", "result": 0}, {"measurement": "Plant response rating, Surinam Grass", "setting": "[2]; [13]", "result": 0}, {"measurement": "Plant response rating, Surinam Grass", "setting": "[2]; [11]", "result": 100}, {"measurement": "Plant response rating, Surinam Grass", "setting": "[2]; [8]", "result": 100}, {"measurement": "Plant response rating (scale of 0 to 100), Nutsedge, Yellow", "setting": "[3]; Postemergence, 16 g ai/ha", "result": 0}, {"measurement": "Plant response rating (scale of 0 to 100), Nutsedge, Yellow", "setting": "[3]; Postemergence, 31 g ai/ha", "result": 0}, {"measurement": "Nutsedge, Yellow plant response rating", "setting": "[3]; Postemergence, 62 g ai/ha", "result": 0}, {"measurement": "Nutsedge, Yellow plant response rating", "setting": "[3]; Postemergence, 125 g ai/ha", "result": 0}, {"measurement": "Plant response rating, Nutsedge, Yellow", "setting": "[3]; [12]", "result": 0}, {"measurement": "Plant response rating, Nutsedge, Yellow", "setting": "[3]; [13]", "result": 0}, {"measurement": "Plant response rating, Nutsedge, Yellow", "setting": "[3]; [11]", "result": 0}, {"measurement": "Plant response rating (scale of 0 to 100), Foxtail, Giant", "setting": "[4]; Postemergence, 16 g ai/ha", "result": 0}, {"measurement": "Plant response rating (scale of 0 to 100), Foxtail, Giant", "setting": "[4]; Postemergence, 31 g ai/ha", "result": 0}, {"measurement": "Foxtail, Giant plant response rating", "setting": "[4]; Postemergence, 62 g ai/ha", "result": 0}, {"measurement": "Foxtail, Giant plant response rating", "setting": "[4]; Postemergence, 125 g ai/ha", "result": 0}, {"measurement": "Plant response rating, Foxtail, Giant", "setting": "[4]; [12]", "result": 0}, {"measurement": "Plant response rating, Foxtail, Giant", "setting": "[4]; [13]", "result": 0}, {"measurement": "Plant response rating, Foxtail, Giant", "setting": "[4]; [11]", "result": 0}, {"measurement": "Plant response rating, Foxtail, Giant", "setting": "[4]; [8]", "result": 20}, {"measurement": "Plant response rating (scale of 0 to 100), Crabgrass", "setting": "[5]; Postemergence, 16 g ai/ha", "result": 0}, {"measurement": "Plant response rating (scale of 0 to 100), Crabgrass", "setting": "[5]; Postemergence, 31 g ai/ha", "result": 0}, {"measurement": "Crabgrass plant response rating", "setting": "[5]; Postemergence, 62 g ai/ha", "result": 0}, {"measurement": "Crabgrass plant response rating", "setting": "[5]; Postemergence, 125 g ai/ha", "result": 20}, {"measurement": "Plant response rating, Crabgrass", "setting": "[5]; [12]", "result": 0}, {"measurement": "Plant response rating, Crabgrass", "setting": "[5]; [13]", "result": 0}, {"measurement": "Plant response rating, Crabgrass", "setting": "[5]; [11]", "result": 0}, {"measurement": "Plant response rating, Crabgrass", "setting": "[5]; [8]", "result": 60}]}
